The text below walks through data of ChEMBL document CHEMBL3627659, “Development of novel dipeptide-like rhodesain inhibitors containing the 3-bromoisoxazoline warhead in a constrained conformation” (Bioorg Med Chem, 2015).

Assay [1] concerns the target Rhodesain (Trypanosoma brucei rhodesiense) (UniProt Q95PM0). Put plainly: Inhibition of Trypanosoma brucei rhodesiense rhodesain using Cbz-Phe-Arg-7-amino-4-methylcoumarin assessed as substrate hydrolysis at 100 uM measured by fluorescence analysis for 10 mins.
In assay [2] the target is Cathepsin B (Homo sapiens) (UniProt P07858). Briefly: Inhibition of human cathepsin B using Cbz-Phe-Arg-AMC at 100 uM measured by fluorescence spectrophotometry.
Another assay has as its target Rhodesain (Trypanosoma brucei rhodesiense, UniProt Q95PM0). Put plainly: Inhibition of Trypanosoma brucei rhodesiense rhodesain using Cbz-Phe-Arg-7-amino-4-methylcoumarin assessed as substrate hydrolysis measured by fluorescence analysis for 10 mins.
Assay [3] deals with Procathepsin L (Homo sapiens) (UniProt P07711). Briefly: Inhibition of human cathepsin L using Cbz-Phe-Arg-AMC at 100 uM measured by fluorescence spectrophotometry.
In assay [4] the test system is Trypanosoma brucei brucei. Briefly: Antitrypanosomal activity against Trypanosoma brucei brucei TC 221 after 48 hrs by Alamar Blue assay. It counts as functional, organism-based. Conditions: TC 221, 48 h. In general terms: Resazurin is reduced to fluorescent resorufin, in cell work by metabolically active cells.
For assay [5], the system named is Trypanosoma brucei brucei. Briefly: Antitrypanosomal activity against Trypanosoma brucei brucei TC 221 after 72 hrs by Alamar Blue assay. It is filed as functional, organism-based. Particulars: TC 221, 72 h.
The nature of assay [6]: Cytotoxicity against mouse J774.1 cells incubated for 24 to 48 hrs by Alamar Blue assay. It counts as cell-based.

Active and inactive are the calls of the source. The calls are words filed in the database; no cut-off is given here.

Procathepsin L (Homo sapiens), sequence (P07711 114-333 limits assumed): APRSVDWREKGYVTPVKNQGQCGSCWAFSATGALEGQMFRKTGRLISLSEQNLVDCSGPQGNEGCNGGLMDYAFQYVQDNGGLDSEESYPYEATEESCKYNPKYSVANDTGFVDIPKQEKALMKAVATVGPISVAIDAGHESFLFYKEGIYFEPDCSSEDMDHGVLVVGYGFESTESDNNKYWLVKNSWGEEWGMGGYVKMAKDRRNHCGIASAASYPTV
Rhodesain (Trypanosoma brucei rhodesiense), sequence (Q95PM0 1-450): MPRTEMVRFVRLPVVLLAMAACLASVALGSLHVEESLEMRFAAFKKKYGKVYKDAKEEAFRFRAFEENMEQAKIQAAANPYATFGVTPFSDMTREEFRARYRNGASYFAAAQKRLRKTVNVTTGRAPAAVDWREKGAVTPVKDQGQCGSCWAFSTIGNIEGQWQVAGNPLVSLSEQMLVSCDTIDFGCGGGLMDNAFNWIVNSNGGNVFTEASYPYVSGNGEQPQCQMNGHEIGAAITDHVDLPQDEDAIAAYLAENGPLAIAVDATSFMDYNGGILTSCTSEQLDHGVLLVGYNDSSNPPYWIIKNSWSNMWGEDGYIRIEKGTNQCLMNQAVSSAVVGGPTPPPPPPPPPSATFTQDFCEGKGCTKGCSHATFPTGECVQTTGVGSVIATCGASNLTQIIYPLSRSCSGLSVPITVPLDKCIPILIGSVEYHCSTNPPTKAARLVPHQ
Rhodesain, sequence (Q95PM0 whole entry): as the sequence (Q95PM0 1-450) above

As a reminder, the inhibition is the relative decrease from the control value, in per cent. In general, Ki refers to a dissociation constant, usually derived from enzyme kinetics or from competition with a known ligand. As for `O=C(N[C@@H](CCc1ccccc1)C(=O)N1C[C@@H]2C(Br)=NO[C@@H]2C1)OCc1ccc([N+](=O)[O-])cc1`, the inhibition in assay [1] was more than 40%. In addition, the inhibition result in assay [2] was “inactive”. Further, the Ki on Rhodesain came to 6.81 µM.

For the molecule `CCCOC(=O)N[C@@H](CC(C)C)C(=O)N1CC2ON=C(Br)C2C1` (mixture of isomers), the inhibition in assay [1] was 11.3%. The inhibition result in assay [2] and in assay [3] was “inactive” each time.

For `C=CCOC(=O)N[C@@H](CC(C)C)C(=O)N1C[C@@H]2ON=C(Br)[C@@H]2C1`, the inhibition in assay [1] is more than 40%. The inhibition entry in assay [2] and in assay [3] was “inactive” in each case. In addition, the inhibitory constant (Ki) at Rhodesain was 9.05 µM.

Turning to `C=CCOC(=O)N[C@@H](Cc1ccccc1)C(=O)N1C[C@@H]2C(Br)=NO[C@@H]2C1`, the inhibition in assay [1] was more than 40%. For the same molecule, the inhibition entry in assay [2] and in assay [3] was “inactive” throughout. Further, the Ki on Rhodesain was 15.1 µM.

Regarding `C=CCOC(=O)N[C@@H](CCc1ccccc1)C(=O)N1CC2ON=C(Br)C2C1` (mixture of isomers), the inhibition in assay [1] was more than 40%. Besides, the inhibition result in assay [2] is “inactive”. Besides, the Ki on Rhodesain stood at 2.62 µM.

Consider `CCCOC(=O)N[C@@H](Cc1ccccc1)C(=O)N1CC2ON=C(Br)C2C1` (mixture of isomers), for which the inhibition in assay [1] was found to be 13.1%. Moreover, the inhibition result in assay [2] and in assay [3] was “inactive” each time.

With `CC(C)(C)OC(=O)N[C@@H](CCc1ccccc1)C(=O)N1CC2ON=C(Br)C2C1` (mixture of isomers), in assay [1], the inhibition amounted to 5.8%. Also, the inhibition result in assay [2] is “inactive”.

One may read the IC50 as the midpoint of a concentration-inhibition curve. Low values mean higher potency, high ones lower potency. In the case of `O=C(N[C@@H](Cc1ccccc1)C(=O)N1CC2ON=C(Br)C2C1)OCc1ccccc1` (mixture of isomers), in assay [1], the inhibition was more than 40%. For the same molecule, the inhibition result in assay [2] and in assay [3] was “inactive” in each case. Besides, the IC50 is 16.4 µM in assay [4], 18.2 µM in assay [5] and more than 100 µM in assay [6]. The Ki on Rhodesain turned out to be 8.41 µM.

Consider `C=CCOC(=O)N[C@@H](CCc1ccccc1)C(=O)N1C[C@@H]2C(Br)=NO[C@@H]2C1`, for which the inhibition in assay [1] is more than 40%. The inhibition entry in assay [2] is “inactive”. Also, the Ki on Rhodesain came to 2.73 µM.

Turning to `CC(C)C[C@H](NC(=O)OC(C)(C)C)C(=O)N1CC2ON=C(Br)C2C1` (mixture of isomers), in assay [1], the inhibition was more than 40%. For the same molecule, the inhibition entry in assay [2] and in assay [3] was “inactive” in each case. The Ki at Rhodesain was found to be 13.6 µM.

As to `CC(C)C[C@H](NC(=O)OCc1ccccc1)C(=O)N1CC2ON=C(Br)C2C1` (mixture of isomers), the inhibition in assay [1] worked out at 8.3%. Moreover, the inhibition entry in assay [2] is “inactive”.

As for `O=C(N[C@@H](CCc1ccccc1)C(=O)N1CC2ON=C(Br)C2C1)OCc1ccccc1` (mixture of isomers), the inhibition entry in assay [1] and in assay [2] was “inactive” each time.

On to `C=CCOC(=O)N[C@@H](CC(C)C)C(=O)N1C[C@@H]2C(Br)=NO[C@@H]2C1`, for which the inhibition in assay [1] was more than 40%. Further, the inhibition result in assay [2] and in assay [3] was “inactive” in each case. Also, the Ki on Rhodesain turned out to be 8.52 µM.

For the molecule `CC(C)(C)OC(=O)N[C@@H](Cc1ccccc1)C(=O)N1CC2ON=C(Br)C2C1` (mixture of isomers), the inhibition in assay [1] is more than 40%. The inhibition entry in assay [2] and in assay [3] was “inactive” in each case. Besides, the Ki at Rhodesain was determined as 17.7 µM.

Regarding `C=CCOC(=O)N[C@@H](CCc1ccccc1)C(=O)N1C[C@@H]2ON=C(Br)[C@@H]2C1`, the inhibition in assay [1] is more than 40%. For the same molecule, in assay [2], the inhibition entry is “inactive”. For the same molecule, the Ki at Rhodesain was found to be 3.35 µM.

As to `C=CCOC(=O)N[C@@H](CC(C)C)C(=O)N1CC2ON=C(Br)C2C1` (mixture of isomers), in assay [1], the inhibition was more than 40%. The inhibition entry in assay [2] and in assay [3] was “inactive” each time. Moreover, on Rhodesain, the inhibition constant (Ki) is 8.36 µM.

Take `CCCOC(=O)N[C@@H](CCc1ccccc1)C(=O)N1CC2ON=C(Br)C2C1` (mixture of isomers): the inhibition in assay [1] came to 15.3%. Further, the inhibition result in assay [2] was “inactive”.

With `C=CCOC(=O)N[C@@H](Cc1ccccc1)C(=O)N1C[C@@H]2ON=C(Br)[C@@H]2C1`, in assay [1], the inhibition is more than 40%. For the same molecule, the inhibition result in assay [2] and in assay [3] was “inactive” each time. Further, the Ki at Rhodesain worked out at 16.6 µM.

Consider `O=C(N[C@@H](CCc1ccccc1)C(=O)N1C[C@@H]2C(Br)=NO[C@@H]2C1)OCC1CC1`, for which, in assay [1], the inhibition turned out to be 15.7%. Also, the inhibition result in assay [2] was “inactive”.

On to `C=CCOC(=O)N[C@@H](Cc1ccccc1)C(=O)N1CC2ON=C(Br)C2C1` (mixture of isomers), for which the inhibition in assay [1] was more than 40%. Further, the inhibition entry in assay [2] and in assay [3] was “inactive” each time. In addition, at Rhodesain, the Ki is 16.8 µM.
